Reference: patent US10253045B2, “Crystalline forms of a therapeutic compound and uses thereof” (Kala Pharmaceuticals, Inc., priority 2014, dated 2019)
Values after ≈ are worked out from the molar mass of the structure shown.

Legend:
[1] = Thermodynamic aqueous solubility; assay type: physicochemical; conditions: for Equilibrated form in suspension: XRPD of equilibrated solids after the solubility measurement in water, ambient temperature
Description: The thermodynamic solubility values of Compound 5 using Crystalline Forms I and II as starting forms were determined in water. In one vial, 10 mg of Crystalline Form I of Compound 5 and 1 mL of water were stirred at ambient temperature for 24 hours at 400 RPM. In a separate vial, 10 mg of Crystalline Form II of Compound 5 was suspended in 1 mL of water, and then the suspension was stirred at ambient temperature for 48 hours at 200 RPM. The equilibrated solids were then separated by dispensing 500 μL of the suspension into a 1.5-mL centrifuge tube, and then centrifuged for 5 minutes at 13,200 RPM using an Eppendorf 5415D centrifuge. As much of the supernatant as possible was decanted using a Pasteur pipette and dispensed into a new 1.5-mL centrifuge tube. The samples were again centrifuged for 5 minutes at 13,200 RPM using the same instrument. The Compound 5 content and pH values of the supernatant were determined by HPLC and pH meter, respectively. The pH of the supernatant was determined to be 9.16.

[2] = Wet milling to nanocrystals: particle size and crystal form stability (XRPD); assay type: physicochemical; conditions: XRPD of milled samples compared with neat form
Description: Crystalline Forms of Compound 5 were wet-milled in the presence of stabilizers that enable the preparation of mucus-penetrating particles (MPP) or nanocrystals. The same milling process was employed for all samples. Milling media, specifically 0.5 mL bulk volume of 1-mm ceria-stabilized zirconium oxide beads, was added to a glass vial. Approximately 25 mg of Compound 5 Crystalline Form I or Crystalline Form II and 0.475 mL of milling solution, as specified in each example, were then added to the vial yielding a slurry of 5% Compound 5. A magnetic stir bar was used to agitate the beads, stirring at approximately 500 rpm.
Neat Crystalline Form I of Compound 5 synthesized according to Example 1 was wet-milled in the presence of PLURONIC® F127 (also known as Poloxamer 407) or polyvinyl alcohol with an average MW of 31 kDa and average hydrolysis of 88% (PVA), and a buffer.
Loss of crystallinity and possible form change to amorphous and Crystalline Form II occurred during milling.
Neat Crystalline Form II of Compound 5 prepared in accordance with Example 2 was wet-milled the presence of PLURONIC® F127 (also known as Poloxamer 407) and a buffer.
Approximately 100 μL of Sample A was transferred directly onto the surface of the sample XRPD holder, then was allowed to air dry.

Row | Structure (SMILES) | Equilibrated form in suspension [1] | Equilibrated form in suspension ([1]; listed as I) | solubility ([1]; water, 22 °C, pH 9.16, water, thermodynamic from solid, ambient temperature (ca. 22° C.), 10 mg in 1 mL stirred 24 h (Form I) or 48 h (Form II), supernatant pH 9.16, HPLC) [µg/mL] | Stability of crystalline form to the milling process ([2]; listed as Crystalline Form I of Compound 5) | Solubility in Water ([1]; water, ambient temperature (ca. 22° C.), 10 mg in 1 mL stirred 24 h (Form I) or 48 h (Form II), supernatant pH 9.16, HPLC) [µg/mL] | Stability of crystalline form to the milling process ([2]; listed as Crystalline Form II of Compound 5)
1 | Cc1cc(C(=O)Nc2cc(Oc3ccc4nc(NC(=O)CCCN5CCC6(CC5)COC6)cn4n3)ccc2C)n(C)n1 [Crystalline Form I, N-(5-((2-(4-(2-oxa-7-azaspiro[3.5]nonan-7-yl)butanamido)imidazo[1,2-b]pyridazin-6-yl)oxy)-2-methylphenyl)-1,3-dimethyl-1H-pyrazole-5-carboxamide] | converted to amorphous | Amorphous | 27.8 (≈ 48.5 µM) | not stable to the milling process |  | 
2 | Cc1cc(C(=O)Nc2cc(Oc3ccc4nc(NC(=O)CCCN5CCC6(CC5)COC6)cn4n3)ccc2C)n(C)n1 [Crystalline Form II, N-(5-((2-(4-(2-oxa-7-azaspiro[3.5]nonan-7-yl)butanamido)imidazo[1,2-b]pyridazin-6-yl)oxy)-2-methylphenyl)-1,3-dimethyl-1H-pyrazole-5-carboxamide] | stable |  |  |  | 15.76 (≈ 27.5 µM) | stable to the milling process
